Results as given in ChEMBL document CHEMBL1201862, “PubChem BioAssay data set” (2004).
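In this assay, cells in 96-well plates receive the compound at five concentrations for 48 hours. Endpoints are linearly interpolated between the surrounding concentrations. GI50 = concentration required for 50% inhibition of growth.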 Calls of active or inactive are those of the source. Cut-off read from the data, not from the text of the source: active = GI50 up to about 1.1 µM and inactive = higher.

Key:
Experiment in all cases: NCI anticancer screen, dose series, 48 h
HOP-18 = tested on: HOP-18
DMS-114 = tested on: DMS-114
M19-MEL = tested on: M19-MEL
DLD-1 = tested on: DLD-1
KM-20L2 = tested on: KM-20L2
RXF 631 = tested on: RXF 631

| SMILES | GI50 (HOP-18) | GI50 (DMS-114) | GI50 (M19-MEL) | GI50 (DLD-1) | GI50 (KM-20L2) | GI50 (RXF 631) |
| --- | --- | --- | --- | --- | --- | --- |
| OCC12C3C4C1C1C2C3C41CO (stereo not drawn) | > 100 µM (inactive) | > 100 µM (inactive) | > 100 µM (inactive) | > 100 µM (inactive) | > 100 µM (inactive) | > 100 µM (inactive) |
| NC1CCC[C@H]1O (stereo partly drawn) | > 100 µM (inactive) | > 100 µM (inactive) | > 100 µM (inactive) | > 100 µM (inactive) | > 100 µM (inactive) | > 100 µM (inactive) |
| CN1C(=O)C2C=CC1C1CCC2N(C)C1=O (stereo not drawn) | > 100 µM (inactive) | > 100 µM (inactive) | > 100 µM (inactive) | > 100 µM (inactive) |  | > 100 µM (inactive) |
| O=C(CCc1cc(-c2ccco2)n(-c2ccc([N+](=O)[O-])cc2[N+](=O)[O-])n1)Nc1ccccc1 |  | > 100 µM (inactive) | > 100 µM (inactive) | > 100 µM (inactive) | > 100 µM (inactive) | > 100 µM (inactive) |
| Cc1ccc(S(=O)(=O)N2CCN(C=S)CC2)cc1 | > 100 µM (inactive) | > 100 µM (inactive) | > 100 µM (inactive) | > 100 µM (inactive) | > 100 µM (inactive) | > 100 µM (inactive) |
| COc1cccc2c1C(=O)c1c(O)c3c(c(O)c1C2=O)C[C@@](O)(C(=O)CO)CC3OC1CC(NCCOCC(OC(C)=O)OC(C)=O)C(O)C(C)O1 (stereo partly drawn) | < 0.01 µM (active) | < 0.01 µM (active) | < 0.01 µM (active) | 0.01 µM (active) | < 0.01 µM (active) |  |
| COC(=O)CCC(=O)Nc1cccc(C(F)(F)F)c1 | > 100 µM (inactive) | > 100 µM (inactive) | > 100 µM (inactive) | > 100 µM (inactive) | > 100 µM (inactive) |  |
| CN1CCc2c1nc(-c1ccc(Cl)cc1)c1c2N(C)CC1 | < 0.01 µM (active) | 10.8 µM (inactive) | 9.14 µM (inactive) | 7.66 µM (inactive) | 0.514 µM (active) |  |
| CC[C@@H](C)[C@@H]1NC(=O)C(C(C)=O)=C1O | 12.9 µM (inactive) | 31.8 µM (inactive) | 11.9 µM (inactive) | 20.9 µM (inactive) | 23.2 µM (inactive) | 15.1 µM (inactive) |
| Cn1cnc([N+](=O)[O-])c1Sc1nc2ccccc2o1 | 0.389 µM (active) | 2.14 µM (inactive) | 8.43 µM (inactive) | 4.13 µM (inactive) | 4.66 µM (inactive) | 4.05 µM (inactive) |
| Cc1cc(=O)n(-c2cc3cccccc-3n2)[nH]1 | 3.95 µM (inactive) | 2.38 µM (inactive) | 3.95 µM (inactive) | 5.61 µM (inactive) | 38.4 µM (inactive) |  |
| CCOC(=O)NC(=O)c1cn(CCOC(=O)NCCCCCCNC(=O)OCCn2cc(C(=O)NC(=O)OCC)c(=O)[nH]c2=O)c(=O)[nH]c1=O | > 100 µM (inactive) | > 100 µM (inactive) | > 100 µM (inactive) | > 100 µM (inactive) | > 100 µM (inactive) |  |
| CC1=C(O)C(=O)C2C(=O)C1C(C)C2c1ccc(Cl)cc1 (stereo not drawn) |  |  | > 100 µM (inactive) | > 100 µM (inactive) |  | > 100 µM (inactive) |
| CC(C)(C)OC(=O)C#CC[C@H]1CCCC1/C=C/C(O)=C1/C(=O)NC(CCCNC(=O)OC(C)(C)C)C1=O (stereo partly drawn) | 25.7 µM (inactive) | 21.3 µM (inactive) | 25.9 µM (inactive) | 53 µM (inactive) | 25.1 µM (inactive) | 19.4 µM (inactive) |
| Cc1cc(C)c(C(=O)OC(c2ccccc2)C(c2ccccc2)N2CCOCC2)c(C)c1 (stereo not drawn) | > 100 µM (inactive) | > 100 µM (inactive) | > 100 µM (inactive) | > 100 µM (inactive) | > 100 µM (inactive) | > 100 µM (inactive) |
| S=C1SCC2CCCN12 (stereo not drawn) | > 100 µM (inactive) | > 100 µM (inactive) | > 100 µM (inactive) | > 100 µM (inactive) | > 100 µM (inactive) | > 100 µM (inactive) |
| Cn1c(=O)cc2[nH]c3ccccc3n2c1=O | 61.7 µM (inactive) | > 100 µM (inactive) | 33.7 µM (inactive) | 40.2 µM (inactive) | 77.4 µM (inactive) | 29.6 µM (inactive) |
| COC(=O)[C@@]1(C(C)CC(=O)O)CCCCC1=O (stereo partly drawn) | > 100 µM (inactive) | 82.8 µM (inactive) | > 100 µM (inactive) | > 100 µM (inactive) | > 100 µM (inactive) |  |
| O=C1/C(=C/c2ccc(Cl)cc2)CCC1CCN1CCOCC1 (stereo not drawn) | > 100 µM (inactive) | 28.7 µM (inactive) | 72.9 µM (inactive) | 61 µM (inactive) | 43.8 µM (inactive) | 46.6 µM (inactive) |
| O=c1c2ccccc2[nH]c2c(O)ccc(O)c12 |  | 17.9 µM (inactive) | 24.9 µM (inactive) | > 10 µM (inactive) | 78.9 µM (inactive) | 21.8 µM (inactive) |
